According to patent publication US20220372014A1, “NEUROPROTECTIVE COMPOUNDS AND METHODS OF USE THEREOF” (The Johns Hopkins University, priority 2019, published 2022):
“Also recorded” adds a separate entry of the source.

Assays:
ExoIII = ExoIII (Escherichia coli, UniProt P09030); test: In vitro nuclease assay of ExoIII (18 bp double-strand DNA substrate); format: biochemical
Protocol: (§1) Nuclease assay. Purified PAAN/MIF protein (4 μM) was incubated with compounds (10 μM) in the nuclease buffer [10 mM Tris-C1 (pH 7.0) and 10 mM MgCl2] for 20 m on ice. Then samples were added with 1 μM of PAAN/MIF substrate (PS30 or RF) and incubated for 1 h at 37° C. The reaction was terminated with loading buffer containing 10 mM EDTA and separated on 15% TBE-urea polyacrylamide (PAGE) gel or 20% TBE PAGE gel. For other nucleases (EcoRI and EcoRV) assays, pcDNA3 (500 ng/reaction) was used as a substrate and 0.01 unit of Exonulcase III were incubated with small dsDNA (Sequence ID NO 4:5′-[…]-3′ and Sequence ID NO 5:5′-[…]-3′).

primary cortical neurons = test: α-syn PFF-induced cell death in mouse primary cortical neurons (Hoechst and PI staining); format: cell-based; settings: for α-syn PFF-induced cell death in mouse cortical neurons: pre-treated before α-syn PFF, Hoechst/PI; for toxicity when applied to primary cortical neurons: FIG. 12G
Protocol: Cell culture, transfection, primary neuronal culture and treatment. SH-SY5Y cells (ATCC) were cultured in DMEM containing 10% fetal bovine serum and penicillin/streptomycin at 37° C. under 5% C02. The cells were transfected using PolyFect reagent (Qiagen). Parthanatos was induced by the treatment of 50 μM MNNG for 15 min in SH-SY5Y cells. ABT-888 or PAAN/MIF inhibitors were pretreated with indicated concentration 1 h before MNNG treatment and cell death were assessed after 24 h. Primary cortical neurons from WT, PAAN/MIF KO, E22Q KI or P1G KI embryos were prepared as previously described See Kam et al. (2018) Science 362:eaat8407. Briefly, the cortex was dissected and cultured at embryonic day 16 in neurobasal media supplemented with B-27, 0.5 mM L-glutamine, penicillin and streptomycin (Invitrogen). Primary neurons were infected with AAV2-control, AAV2-PAAN/MIF WT, AAV2-PAAN/MIF E22Q, AAV2-PAAN/MIF E22A or AAV2-MIF P1G (ViGene Biosciences) at days in vitro (DIV) 4-5. ABT-888 or PAAN/MIF inhibitors were applied to neurons 1 h before α-syn PFF treatment. The neuron growth medium was replaced with fresh medium alone or including inhibitors every 3-4 days. α-syn PFF was added at DIV 7 and further incubated for indicated times followed by the cell death assay or biochemical experiments.
(§2) Cell death and viability assessment. Primary cultured cortical neurons were treated with 5 μg/ml of α-syn PFF for 14 days and cell death was determined by staining of all nuclei with 7 μM Hoechst 33342 and dead cell nuclei with 2 μM propidium iodide (PI) (Invitrogen). The numbers of total and dead cells were counted with the Axiovision 4.6 software (Carl Zeiss). Cell viability was determined by fluorescence at an excitation wavelength 570 nm and an emission wavelength 585 nm using Alamar Blue (Invitrogen).

SH-SY5Y cells = test: Staurosporine (STS)-induced apoptotic cell death, Alamar blue; format: cell-based; settings: 0.5 μM STS
Protocol: (§3) Graphs represent mean±s.e.m. ***P<0.0005, two-way ANOVA followed by Tukey's post hoc test (n=3). A PARP inhibitor, ABT-888 is used for the positive control. FIGS. 12B and 12C show in vitro oxidoreductase and tautomerase activity of MIF/PAAN with compound 41, 56, 76, or 77. FIGS. 12D and 12E show Alamar blue cell viability assay from SH-SY5Y cells pre-incubated with compound 41, 56, 76, or 77 in response to 0.5 μM staurosporine (STS) or from HT 22 cells incubated with 1 ng/ml of TNF-α with 50 μM z-VAD. A pan caspase inhibitor, z-VAD or necrostatin (Nec-1) is used for the positive control and PARP inhibitor, ABT-888 is used for negative control. Bars represent mean±s.e.m. ***P<0.0005, two-way ANOVA followed by Tukey's post hoc test (n=3). […] Bars represent mean±s.e.m. **P<0.005, ***P<0.0005, two-way ANOVA followed by Tukey's post hoc test (n=3).
(§4) FIGS. 14A-14G show the characterization of compound 121. […] Bars represent means±s.e.m. ***P<0.0005, two-way ANOVA followed by Tukey's post hoc test (n=4). […] Bars represent mean±s.e.m. ***P<0.0005, two-way ANOVA followed by Tukey's post hoc test (n=4). […] Bars represent means±s.e.m. **P<0.005, ***P<0.0005, one-way ANOVA followed by Tukey's post hoc test (n=3). […] Bar represent mean±s.e.m. ***P<0.0005, one-way ANOVA followed by Tukey's post hoc test (n=3). […] Quantification of inhibition of PARP-1 activity by compound 56, compound 121 and ABT-888 is shown. Graphs represent mean±s.e.m. ***P<0.0005, two-way ANOVA followed by Tukey's post hoc test (n=3). FIGS. 14F and 14G show Alamar blue cell viability assay from SH-SY5Y cells pre-incubated with either compound 56 or 121 in response to (14F) 0.5 μM staurosporine (STS) or (14G) from HT 22 cells incubated with 1 ng/ml of TNF-α with 50 μM z-VAD. Bars represent mean±s.e.m. ***P<0.0005, two-way ANOVA followed by Tukey's post hoc test (n=5).
as §2

HT 22 cells = test: TNF-α and z-VAD-induced necroptosis, Alamar blue; format: cell-based; settings: 1 ng/ml TNF-α with 50 μM z-VAD
Protocol: as §3, §4, §2

EcoRI = EcoRI (Escherichia coli, UniProt P00642); test: In vitro nuclease assay of EcoRI (pcDNA3 substrate); format: biochemical
Protocol: as §1

Sequence of EcoRI (P00642 whole entry): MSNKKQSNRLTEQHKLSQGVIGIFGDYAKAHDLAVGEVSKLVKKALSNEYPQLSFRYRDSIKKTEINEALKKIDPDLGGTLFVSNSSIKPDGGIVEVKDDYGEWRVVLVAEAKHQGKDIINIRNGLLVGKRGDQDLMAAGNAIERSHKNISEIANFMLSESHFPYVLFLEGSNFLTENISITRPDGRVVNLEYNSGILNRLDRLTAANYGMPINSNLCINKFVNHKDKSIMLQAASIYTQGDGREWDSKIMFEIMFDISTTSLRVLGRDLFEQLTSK
Sequence of ExoIII (P09030 whole entry): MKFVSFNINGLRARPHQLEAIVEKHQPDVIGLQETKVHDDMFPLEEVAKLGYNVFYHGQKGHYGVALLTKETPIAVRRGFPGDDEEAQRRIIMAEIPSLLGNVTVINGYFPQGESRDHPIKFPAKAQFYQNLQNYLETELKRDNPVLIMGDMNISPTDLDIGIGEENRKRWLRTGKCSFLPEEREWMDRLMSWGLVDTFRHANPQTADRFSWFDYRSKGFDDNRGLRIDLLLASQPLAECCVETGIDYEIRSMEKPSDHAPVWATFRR

| SMILES | nuclease activity of ExoIII (ExoIII) | α-syn PFF-induced cell death in mouse cortical neurons (primary cortical neurons) | staurosporine (STS)-induced apoptotic cell death (SH-SY5Y cells) | TNFα and Z-VAD-induced necroptosis (HT 22 cells) | nuclease activity of EcoRI (EcoRI) | toxicity when applied to primary cortical neurons (primary cortical neurons) |
| --- | --- | --- | --- | --- | --- | --- |
| COc1ccc(CC[C@H]2OC(=O)[C@@H]3CCCCN3C(=O)C(=O)C(C)(C)COC(=O)C=CCCN(C)C(=O)[C@@H]3CCCN3C(=O)[C@H](COC(C)(C)C)N(C)C(=O)C(c3ccccc3)NC(=O)[C@H](C)N(C)C(=O)COc3cccc2c3)cc1OC (stereo partly drawn) [compound 56] | do not inhibit | attenuated; also recorded: protected | do not inhibit; also recorded: failed to inhibit | not prevented; also recorded: failed to inhibit | do not inhibit |  |
| COc1ccc(CC[C@H]2OC(=O)[C@@H]3CCCCN3C(=O)C(=O)C(C)(C)COC(=O)C=CCCN(C)C(=O)[C@@H]3CCCN3C(=O)[C@H](COC(C)(C)C)N(C)C(=O)C(c3ccccc3)NC(=O)CN(C)C(=O)COc3cccc2c3)cc1OC (stereo partly drawn) [compound 41] | do not inhibit | attenuated | do not inhibit | not prevented | do not inhibit | some toxicity |
| COc1ccc(CC[C@H]2OC(=O)[C@@H]3CCCCN3C(=O)C(=O)C(C)(C)COC(=O)C=CCCN(C)C(=O)[C@H](C)NC(=O)[C@H](C(C)C)N(C)C(=O)[C@@H](Cc3ccccc3)NC(=O)[C@H](CC(C)C)N(C)C(=O)CCC(=O)Nc3cccc2c3)cc1OC [compound 77] | do not inhibit | attenuated | do not inhibit | not prevented | do not inhibit |  |
| COc1ccc(CC[C@H]2OC(=O)[C@@H]3CCCCN3C(=O)C(=O)C(C)(C)COC(=O)C=CCCN(C)C(=O)CNC(=O)[C@H](C(C)C)N(C)C(=O)[C@@H](Cc3ccccc3)NC(=O)[C@H](CC(C)C)N(C)C(=O)CCC(=O)Nc3cccc2c3)cc1OC [compound 76] | do not inhibit |  | do not inhibit | not prevented | do not inhibit | some toxicity |
| COc1ccc(CC[C@H]2OC(=O)[C@@H]3CCCCN3C(=O)C(=O)C(C)(C)COC(=O)C=CCCN(C)C(=O)[C@@H]3CCCN3C(=O)[C@H](COC(C)(C)C)N(C)C(=O)C(c3ccccc3)NC(=O)[C@H](C)N(C)C(=O)COc3cc(F)cc2c3)cc1OC (mixture of isomers) [compound 121] |  | protected | failed to inhibit | failed to inhibit |  |  |
